One test deals with T1, STAT6 protein (Homo sapiens, UniProt P42226).
T1 sequence (P42226 1-847): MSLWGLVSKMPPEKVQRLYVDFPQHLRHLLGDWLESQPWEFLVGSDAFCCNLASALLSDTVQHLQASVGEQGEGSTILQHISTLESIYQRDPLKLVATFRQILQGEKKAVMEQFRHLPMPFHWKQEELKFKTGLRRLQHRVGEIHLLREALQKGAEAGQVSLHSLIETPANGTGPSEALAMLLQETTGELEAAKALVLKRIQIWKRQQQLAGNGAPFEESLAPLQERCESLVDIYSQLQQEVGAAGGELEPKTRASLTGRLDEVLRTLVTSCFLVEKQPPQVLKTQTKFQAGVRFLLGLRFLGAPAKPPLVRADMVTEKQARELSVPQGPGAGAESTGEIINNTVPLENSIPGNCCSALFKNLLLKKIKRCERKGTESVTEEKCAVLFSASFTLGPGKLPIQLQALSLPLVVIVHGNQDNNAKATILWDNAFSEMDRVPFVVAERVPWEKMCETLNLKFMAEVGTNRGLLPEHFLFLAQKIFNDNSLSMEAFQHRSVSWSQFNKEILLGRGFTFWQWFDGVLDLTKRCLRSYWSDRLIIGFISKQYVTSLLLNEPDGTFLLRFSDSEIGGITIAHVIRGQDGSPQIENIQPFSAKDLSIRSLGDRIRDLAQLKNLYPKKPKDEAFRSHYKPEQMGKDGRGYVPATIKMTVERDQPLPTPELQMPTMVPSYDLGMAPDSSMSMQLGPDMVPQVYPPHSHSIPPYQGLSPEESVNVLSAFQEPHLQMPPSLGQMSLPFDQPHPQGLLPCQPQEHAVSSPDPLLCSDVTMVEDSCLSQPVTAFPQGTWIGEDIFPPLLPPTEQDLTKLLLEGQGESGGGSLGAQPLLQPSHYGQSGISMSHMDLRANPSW
The experiment in a line: Fluorescence polarization (FP) binding assay, STAT6. The settings on record: FP competition, 5 nM fluorescein-labeled tracer, 200 nM protein, PBS pH7.4; read-out: Binding STAT6. The method, boiled down: (§1)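 5 nM fluorescein tracer + 200 nM STAT protein; PBS pH 7.4, 0.01% BGG, 0.01% Tween-20, 2 mM DTT; shake 15 min, 1 h RT equilibrium; FP read; nonlinear fit for inhibition constants.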

For another test, the target named is T2, STAT5A (Homo sapiens, UniProt P42229).
T2 sequence (P42229 1-794): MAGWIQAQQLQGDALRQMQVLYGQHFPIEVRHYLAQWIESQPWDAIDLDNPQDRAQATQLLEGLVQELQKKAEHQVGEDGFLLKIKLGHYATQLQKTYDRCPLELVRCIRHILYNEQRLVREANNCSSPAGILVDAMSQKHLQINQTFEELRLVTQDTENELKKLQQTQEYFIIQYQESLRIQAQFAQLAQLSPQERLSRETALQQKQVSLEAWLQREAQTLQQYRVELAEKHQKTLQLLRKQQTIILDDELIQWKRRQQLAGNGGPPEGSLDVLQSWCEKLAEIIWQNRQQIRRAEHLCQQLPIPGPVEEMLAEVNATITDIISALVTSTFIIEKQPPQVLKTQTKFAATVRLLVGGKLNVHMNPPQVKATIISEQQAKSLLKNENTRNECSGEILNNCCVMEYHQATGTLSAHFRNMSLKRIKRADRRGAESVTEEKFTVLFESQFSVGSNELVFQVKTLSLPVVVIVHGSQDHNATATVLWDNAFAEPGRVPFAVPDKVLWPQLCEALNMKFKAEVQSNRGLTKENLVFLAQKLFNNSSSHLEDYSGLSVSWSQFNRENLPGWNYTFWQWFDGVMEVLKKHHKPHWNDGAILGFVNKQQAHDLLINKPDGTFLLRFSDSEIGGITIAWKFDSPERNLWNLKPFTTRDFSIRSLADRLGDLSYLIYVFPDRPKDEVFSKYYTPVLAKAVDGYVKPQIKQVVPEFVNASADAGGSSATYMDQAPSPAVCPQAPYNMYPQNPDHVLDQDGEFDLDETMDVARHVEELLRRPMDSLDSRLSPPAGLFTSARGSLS
The experiment in a line: Fluorescence polarization (FP) binding assay, STAT5A. The conditions noted are these: FP competition, 5 nM fluorescein-labeled tracer, 200 nM protein, PBS pH7.4. The method, boiled down:
as §1

The results in this text go back to patent US20230295200A1 (REGENTS OF THE UNIVERSITY OF MICHIGAN, priority 2022, published 2023).

For `O=C(N[C@@H](CC1CCNCC1)C(=O)N1CCC[C@H]1C(=O)N1CCc2ccccc2C1)c1cc2cc(C(F)(F)P(=O)(O)O)ccc2[nH]1` [Compound 36, (difluoro(2-(((S)-1-oxo-3-(piperidin-4-yl)-1-((S)-2-(1,2,3,4-tetrahydroisoquinoline-2-carbonyl)pyrrolidin-1-yl)propan-2-yl)carbamoyl)-1H-indol-5-yl)methyl)phosphonic acid], the Ki at STAT6 protein and at STAT5A was more than 10000 nM throughout.

For the compound `CC(C)(C)[C@H](NC(=O)c1cc2cc(C(F)(F)P(=O)(O)O)ccc2s1)C(=O)N1CCC[C@H]1C(=O)N(c1ccc(I)cc1)c1ccc(C(=O)OCc2ccccc2)cc1` [Compound 37, ((2-(((S)-1-((S)-2-((4-((benzyloxy)carbonyl)phenyl)(4-iodophenyl)carbamoyl)pyrrolidin-1-yl)-3,3-dimethyl-1-oxobutan-2-yl)carbamoyl)benzo[b]thiophen-5-yl)difluoromethyl)phosphonic acid], the Ki on STAT6 protein was 100 to 1000 nM; at STAT5A, 1000 to 10000 nM.

Consider `COC(=O)CCN(C(=O)[C@@H]1CCCN1C(=O)[C@@H](NC(=O)c1cc2cc(C(F)(F)P(=O)(O)O)ccc2s1)C(C)(C)C)c1ccccc1` [Compound 38, (difluoro(2-(((S)-1-((S)-2-((3-methoxy-3-oxopropyl)(phenyl)carbamoyl)pyrrolidin-1-yl)-3,3-dimethyl-1-oxobutan-2-yl)carbamoyl)benzo[b]thiophen-5-yl)methyl)phosphonic acid], for which the Ki on STAT6 protein and on STAT5A was 1000 to 10000 nM in each case.

`CC(C)(C)[C@H](NC(=O)c1cc2cc(C(F)(F)P(=O)(O)O)ccc2s1)C(=O)N1CCC[C@H]1C(=O)N(c1ccccc1)c1ccc(I)cc1` [Compound 39, (difluoro(2-(((S)-1-((S)-2-((4-iodophenyl)(phenyl)carbamoyl)pyrrolidin-1-yl)-3,3-dimethyl-1-oxobutan-2-yl)carbamoyl)benzo[b]thiophen-5-yl)methyl)phosphonic acid]: the Ki fell in the range of 100 to 1000 nM at STAT6 protein and 1000 to 10000 nM on STAT5A.

Regarding `CC(C)(C)[C@H](NC(=O)c1cc2cc(C(F)(F)P(=O)(O)O)ccc2[nH]1)C(=O)N1CCC[C@H]1C(=O)N(c1ccc(Cl)cc1)C1CCCCC1` [Compound 40, ((2-(((S)-1-((S)-2-((4-chlorophenyl)(cyclohexyl)carbamoyl)pyrrolidin-1-yl)-3,3-dimethyl-1-oxobutan-2-yl)carbamoyl)-1H-indol-5-yl)difluoromethyl)phosphonic acid], the Ki was in the range of 100 to 1000 nM at STAT6 protein and 1000 to 10000 nM at STAT5A.

Consider `CNC(=O)c1ccc(N(C(=O)[C@@H]2CCCN2C(=O)[C@@H](NC(=O)c2cc3cc(C(F)(F)P(=O)(O)O)ccc3s2)C(C)(C)C)c2ccc(I)cc2)cc1` [Compound 42, (difluoro(2-(((S)-1-((S)-2-((4-iodophenyl)(4-(methylcarbamoyl)phenyl)carbamoyl)pyrrolidin-1-yl)-3,3-dimethyl-1-oxobutan-2-yl)carbamoyl)benzo[b]thiophen-5-yl)methyl)phosphonic acid], for which the Ki is 100 to 1000 nM at STAT6 protein and 1000 to 10000 nM on STAT5A.

For the compound `COC(=O)CCN(C(=O)[C@@H]1CCCN1C(=O)[C@@H](NC(=O)c1cc2cc(C(F)(F)P(=O)(O)O)ccc2s1)C(C)(C)C)c1ccc(Br)cc1` [Compound 43], the Ki at STAT6 protein and on STAT5A was 100 to 1000 nM in each case.

For `CNC(=O)c1ccc(N(C(=O)[C@@H]2CCCN2C(=O)[C@@H](NC(=O)c2cc3cc(C(F)(F)P(=O)(O)O)ccc3s2)C(C)(C)C)c2ccc(Cl)cc2)cc1` [Compound 44, ((2-(((S)-1-((S)-2-((4-chlorophenyl)(4-(methylcarbamoyl)phenyl)carbamoyl)pyrrolidin-1-yl)-3,3-dimethyl-1-oxobutan-2-yl)carbamoyl)benzo[b]thiophen-5-yl)difluoromethyl)phosphonic acid], the Ki on STAT6 protein lay within 100 to 1000 nM; on STAT5A it was 1000 to 10000 nM.

`CNC(=O)CCN(C(=O)[C@@H]1CCCN1C(=O)[C@@H](NC(=O)c1cc2cc(C(F)(F)P(=O)(O)O)ccc2s1)C(C)(C)C)c1ccc(Br)cc1` [Compound 45, ((2-(((S)-1-((S)-2-((4-bromophenyl)(3-(methylamino)-3-oxopropyl)carbamoyl)pyrrolidin-1-yl)-3,3-dimethyl-1-oxobutan-2-yl)carbamoyl)benzo[b]thiophen-5-yl)difluoromethyl)phosphonic acid]: the Ki is 100 to 1000 nM at STAT6 protein and 1000 to 10000 nM at STAT5A.

On to `CC(C)(C)[C@H](NC(=O)c1cc2cc(C(F)(F)P(=O)(O)O)ccc2s1)C(=O)N1CCC[C@H]1C(=O)N(CCC(=O)O)c1ccc(Br)cc1` [Compound 46, 3-((S)-N-(4-bromophenyl)-1-((S)-2-(5-(difluoro(phosphono)methyl)benzo[b]thiophene-2-carboxamido)-3,3-dimethylbutanoyl)pyrrolidine-2-carboxamido)propanoic acid], for which the Ki at STAT6 protein and on STAT5A was 100 to 1000 nM throughout.

`CC(C)(C)[C@H](NC(=O)c1cc2cc(C(F)(F)P(=O)(O)O)ccc2s1)C(=O)N1CCC[C@H]1C(=O)N1CCCC12CCCC2` [Compound 58, ((2-(((S)-1-((S)-2-(1-azaspiro[4.4]nonane-1-carbonyl)pyrrolidin-1-yl)-3,3-dimethyl-1-oxobutan-2-yl)carbamoyl)benzo[b]thiophen-5-yl)difluoromethyl)phosphonic acid]: the figures for the Ki on STAT6 protein and on STAT5A were 1000 to 10000 nM and more than 10000 nM, respectively.

`CC(C)(C)[C@H](NC(=O)c1cc2cc(C(F)(F)P(=O)(O)O)ccc2s1)C(=O)N1CCC[C@H]1C(=O)N1CCC2(CCCC2)C1` [Compound 59, ((2-(((S)-1-((S)-2-(2-azaspiro[4.4]nonane-2-carbonyl)pyrrolidin-1-yl)-3,3-dimethyl-1-oxobutan-2-yl)carbamoyl)benzo[b]thiophen-5-yl)difluoromethyl)phosphonic acid]: the Ki is 1000 to 10000 nM on STAT6 protein and more than 10000 nM at STAT5A.

As for `CC(C)(C)[C@H](NC(=O)c1cc2cc(C(F)(F)P(=O)(O)O)ccc2s1)C(=O)N1CCC[C@H]1C(=O)N1CCCC12CCCCC2` [Compound 60, ((2-(((S)-1-((S)-2-(1-azaspiro[4.5]decane-1-carbonyl)pyrrolidin-1-yl)-3,3-dimethyl-1-oxobutan-2-yl)carbamoyl)benzo[b]thiophen-5-yl)difluoromethyl)phosphonic acid], the values for the Ki on STAT6 protein and on STAT5A were 1000 to 10000 nM and more than 10000 nM, respectively.

As to `CC(C)(C)[C@H](NC(=O)c1cc2cc(C(F)(F)P(=O)(O)O)ccc2s1)C(=O)N1CCC[C@H]1C(=O)N1CCC2(CCCCC2)C1` [Compound 61, ((2-(((S)-1-((S)-2-(2-azaspiro[4.5]decane-2-carbonyl)pyrrolidin-1-yl)-3,3-dimethyl-1-oxobutan-2-yl)carbamoyl)benzo[b]thiophen-5-yl)difluoromethyl)phosphonic acid], the Ki is 1000 to 10000 nM on STAT6 protein and more than 10000 nM on STAT5A.

For `CC(C)(C)[C@H](NC(=O)c1cc2cc(C(F)(F)P(=O)(O)O)ccc2s1)C(=O)N1CCC[C@H]1C(=O)N1CCC2(CCCCCC2)C1` [Compound 62, ((2-(((S)-1-((S)-2-(2-azaspiro[4.6]undecane-2-carbonyl)pyrrolidin-1-yl)-3,3-dimethyl-1-oxobutan-2-yl)carbamoyl)benzo[b]thiophen-5-yl)difluoromethyl)phosphonic acid], the results for the Ki at STAT6 protein and at STAT5A were 1000 to 10000 nM and more than 10000 nM, respectively.
